Measured values taken from patent US12653191B2, “Active compound combinations” (Bayer Aktiengesellschaft, priority 2020, dated 2026).
Where two headings read alike, the source gives them in different places.

How the values were obtained:
[1] = system: Diaporthe citri; test: in vitro-Test with fungal microorganisms, Method A (tables F1-F11); type: cell-based; settings: Diaporthe citri, applied alone, read-out: Efficacy
Summary of the method: (§1)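 Test compound in methanol plus alkylaryl-polyglycol-ether emulsifier was dried into wells, then liquid potato dextrose medium containing spores or mycelium of the fungus was added. Plates were incubated at 20° C and 85% relative humidity; growth read at 620 nm after 3-5 days, efficacy relative to untreated control.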

[2] = system: Cercospora beticola; test: in vitro-Test with fungal microorganisms, Method A (tables C1-C10); type: cell-based; settings: Cercospora beticola, read-out: Efficacy %
Summary of the method: as §1

[3] = system: Botrytis cinerea; test: in vitro-Test with fungal microorganisms, Method B (tables B15-B18); type: cell-based; settings: Botrytis cinerea, alone, read-out: Efficacy %
Summary of the method: (§2)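 Cpd in MeOH + alkylaryl-polyglycol-ether, solvent evaporated; liquid medium + fungal spores/mycelium added; OD600 read; 3–7 d, 20° C., 85% RH; growth inhibition by photometry, % efficacy vs untreated ctrl.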

[4] = system: Colletotrichum lindemuthianum; test: in vitro-Test with fungal microorganisms, Method A (tables D1-D8); type: cell-based; settings: Colletotrichum lindemuthianum, read-out: Efficacy %
Summary of the method: as §1

[5] = system: Ustilago segetum var. avenae; test: in vitro-Test with fungal microorganisms, Method A (tables I1-I5); type: cell-based; settings: alone, read-out: Efficacy %
Summary of the method: as §1

[6] = system: Cercospora beticola; test: in vitro-Test with fungal microorganisms, Method B (tables C11-C20); type: cell-based; settings: Cercospora beticola, read-out: Efficacy %
Summary of the method: as §2

[7] = system: Parastagonospora nodorum; test: in vitro-Test with fungal microorganisms, Method A (tables H1-H4); type: cell-based
Method: Example: In Vitro-Test with Fungal Microorganisms
Wells of 96-well microtiter plates are filled with 10 μl of a preparation of test compound or compound combination in methanol+emulsifier alkylaryl-polyglycol-ether. Thereafter, the solvent is evaporated in a hood. At the next step, 100 μl of liquid potato dextrose medium is given into each well, that has been amended with an appropriate concentration of spores or mycelium suspension of the test fungus.
With the aid of a photometer, the extinction in all wells is measured at the wavelength of 620 nm.
The microtiter plates are incubated at 20° C. and 85% relative humidity. The inhibition of growth is determined again photometrically 3-5 days after the application. Efficacy is calculated in relation to the untreated control, 0% efficacy means fungal growth as high as in untreated control while 100% efficacy means no fungal growth is measured.
The data in tables A1 to A12, B1 to B14, C1 to C10, D1 to D8, E1 to E8, F1 to F11, G1 to G4, H1 to H4 and I1 to I5 were collected according to Method A. The data in tables A13 to A22, B15 to B18, C11 to C20, E9 to E16, F12 to F15, G5 to G15, H5 to H8, I6 to I11 and J1 to J11 were collected according to Method B.

[8] = system: Cordana musae; test: in vitro-Test with fungal microorganisms, Method B (tables E9-E16); type: cell-based
Summary of the method: as §2

[9] = system: Fusarium culmorum; test: in vitro-Test with fungal microorganisms, Method A (tables G1-G4); type: cell-based; settings: Fusarium culmorum, read-out: Efficacy
Summary of the method: as §1

[10] = system: Alternaria alternate; test: in vitro-Test with fungal microorganisms, Method A (tables A1-A12); type: cell-based, Alternaria alternata; settings: Alternaria, applied alone, read-out: Efficacy %
Summary of the method: as §1

[11] = system: Fusarium culmorum; test: in vitro-Test with fungal microorganisms, Method B (tables G5-G15); type: cell-based; settings: Fusarium culmorum, read-out: Efficacy
Summary of the method: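 Read photometrically at 600 nm after 3-7 days at 20° C and 85% relative humidity, Fusarium culmorum growth inhibition is expressed against untreated control. Wells hold solvent-evaporated compound (from methanol/emulsifier) overlaid with spore- or mycelium-amended growth medium.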

[12] = system: Cordana musae; test: in vitro-Test with fungal microorganisms, Method A (tables E1-E8); type: cell-based; settings: Neocordana musae, single substance, read-out: Efficacy %
Summary of the method: as §1

[13] = system: Ustilago segetum var. avenae; test: in vitro-Test with fungal microorganisms, Method B (tables I6-I11); type: cell-based; settings: read-out: Efficacy %
Summary of the method: as §2

[14] = system: Alternaria alternata; test: in vitro-Test with fungal microorganisms, Method B (tables A13-A22); type: cell-based; settings: Alternaria alternata, read-out: Efficacy
Summary of the method: as §2

[15] = system: Parastagonospora nodorum; test: in vitro-Test with fungal microorganisms, Method B (tables H5-H8); type: cell-based; settings: Parastagonospora nodorum, read-out: Efficacy
Summary of the method: as §2

[16] = system: Colletotrichum coccodes; test: in vitro-Test with fungal microorganisms, Method B (tables J1-J11); type: cell-based; settings: Colletotrichum coccodes, read-out: Efficacy %
Summary of the method: as §2

[17] = system: Botrytis cinerea; test: in vitro-Test with fungal microorganisms, Method A (tables B1-B14); type: cell-based; settings: Botrytis cinerea
Summary of the method: as §1

## O=C(NCCc1ncc(C(F)(F)F)cc1Cl)c1ccccc1C(F)(F)F [(2.005) fluopyram, Fluopyram]
[1]; 4.0 ppm
  inhibition of growth at 4 ppm: 15%
[2]; 0.8 ppm alone
  inhibition of growth at 0.8 ppm: 0%
[2]; 4.0 ppm alone
  inhibition of growth at 4 ppm: 27%
[2]; 20.0 ppm alone
  inhibition of growth at 20 ppm: 39%
[3]; 0.8 ppm
  inhibition of growth at 0.8 ppm: 51%
[3]; 4 ppm
  inhibition of growth at 4 ppm: 79%
[3]; 20 ppm
  inhibition of growth at 20 ppm: 100%
[4]; single active at 20.0 ppm
  inhibition of growth at 20 ppm: 23%
[5]; 0.8 ppm
  inhibition of growth at 0.8 ppm: 9%
[5]; 4.0 ppm
  inhibition of growth at 4 ppm: 10%
[5]; 20.0 ppm
  inhibition of growth at 20 ppm: 10%
[6]
  inhibition of growth at 0.8 ppm: 31%
  inhibition of growth at 4 ppm: 0%
  inhibition of growth at 20 ppm: 56%
[6]; single compound
  inhibition of growth at 0.8 ppm: 11%
  inhibition of growth at 4 ppm: 0%
  inhibition of growth at 20 ppm: 7%
[7]; 0.8 ppm
  Efficacy: 37%
[7]; 4.0 ppm
  Efficacy: 44%
[7]; 20.0 ppm
  Efficacy: 70%
[8]; Neocordana musae, single active, 4 ppm, read-out: Efficacy
  inhibition of growth at 4 ppm: 0%
[9]; 0.8 ppm, alone
  inhibition of growth at 0.8 ppm: 0%
[9]; 4.0 ppm, alone
  inhibition of growth at 4 ppm: 0%
[9]; 20.0 ppm, alone
  inhibition of growth at 20 ppm: 16%
[9]; Table G1, 0.8 ppm alone
  inhibition of growth at 0.8 ppm: 0%
[9]; Table G1, 4.0 ppm alone
  inhibition of growth at 4 ppm: 0%
[9]; Table G1, 20.0 ppm alone
  inhibition of growth at 20 ppm: 21%
[10]; 4 ppm
  inhibition of growth at 4 ppm: 63%
[10]; 20 ppm
  inhibition of growth at 20 ppm: 82%
[11]; 4 ppm, alone
  inhibition of growth at 4 ppm: 21%
[11]; single active compound, 0.8 ppm
  inhibition of growth at 0.8 ppm: 20%
[11]; single active compound, 20 ppm
  inhibition of growth at 20 ppm: 37%
[12]; 0.8 ppm
  inhibition of growth at 0.8 ppm: 0%
[12]; 4.0 ppm
  inhibition of growth at 4 ppm: 1%
[13]; 20 ppm
  inhibition of growth at 20 ppm: 20%
[14]
  inhibition of growth at 0.8 ppm: 61%
  inhibition of growth at 4 ppm: 81%
  inhibition of growth at 20 ppm: 88%
[14]; single compound
  inhibition of growth at 0.8 ppm: 79%
  inhibition of growth at 4 ppm: 81%
  inhibition of growth at 20 ppm: 91%
[15]; 4 ppm
  inhibition of growth at 4 ppm: 35%
[15]; 20 ppm
  inhibition of growth at 20 ppm: 59%
[16]; 4 ppm
  inhibition of growth at 4 ppm: 14%
[16]; single active compound at 0.8 ppm
  inhibition of growth at 0.8 ppm: 0%
[16]; single active compound at 4 ppm
  inhibition of growth at 4 ppm: 0%
[17]; read-out: Efficacy
  inhibition of growth at 0.8 ppm: 69%
  inhibition of growth at 4 ppm: 72%
  inhibition of growth at 20 ppm: 100%
[17]; alone, read-out: Efficacy %
  inhibition of growth at 0.8 ppm: 65%
  inhibition of growth at 4 ppm: 75%
  inhibition of growth at 20 ppm: 75%

## CC1COC(Cn2cncn2)(c2ccc(Oc3ccc(Cl)cc3)cc2Cl)O1 (stereo not shown) [(1.002) difenoconazole, difenoconazole]
[1]; 0.04 ppm
  inhibition of growth at 0.04 ppm: 0.04%
[2]; 0.008 ppm alone
  inhibition of growth at 0.008 ppm: 5%
[2]; 0.008 ppm
  inhibition of growth at 0.008 ppm: 15%
[2]; 0.04 ppm alone
  inhibition of growth at 0.04 ppm: 20%
[2]; 0.04 ppm
  inhibition of growth at 0.04 ppm: 40%
[2]; 0.2 ppm alone
  inhibition of growth at 0.2 ppm: 79%
[2]; 0.2 ppm
  inhibition of growth at 0.2 ppm: 89%
[2]; 1.0 ppm alone
  inhibition of growth at 1 ppm: 99%
[2]; 1.0 ppm
  inhibition of growth at 1 ppm: 99%
[3]; 1 ppm
  inhibition of growth at 1 ppm: 13%
[4]; mixing partner alone, 0.008 ppm
  inhibition of growth at 0.008 ppm: 0%
[4]; mixing partner alone, 0.04 ppm
  inhibition of growth at 0.04 ppm: 2%
[4]; mixing partner alone, 0.2 ppm
  inhibition of growth at 0.2 ppm: 0%
[4]; mixing partner alone, 1.0 ppm
  inhibition of growth at 1 ppm: 16%
[5]; 0.008 ppm
  inhibition of growth at 0.008 ppm: 8%
[5]; 0.04 ppm
  inhibition of growth at 0.04 ppm: 14%
[5]; 1.0 ppm
  inhibition of growth at 1 ppm: 100%
[6]
  inhibition of growth at 0.008 ppm: 5%
  inhibition of growth at 0.04 ppm: 60%
  inhibition of growth at 0.2 ppm: 98%
[6]; 1 ppm
  inhibition of growth at 1 ppm: 99%
[6]; single compound
  inhibition of growth at 0.008 ppm: 16%
  inhibition of growth at 0.04 ppm: 51%
  inhibition of growth at 0.2 ppm: 100%
[7]; 0.04 ppm
  Efficacy: 22%
[7]; 0.2 ppm
  Efficacy: 88%
[8]; Neocordana musae, single active, 0.04 ppm, read-out: Efficacy
  inhibition of growth at 0.04 ppm: 0%
[8]; Neocordana musae, single active, 0.2 ppm, read-out: Efficacy
  inhibition of growth at 0.2 ppm: 16%
[8]; Neocordana musae, single active, 1 ppm, read-out: Efficacy
  inhibition of growth at 1 ppm: 20%
[8]; single substance, 0.04 ppm
  Efficacy %: 0%
[10]; 0.04 ppm
  inhibition of growth at 0.04 ppm: 10%
[10]; 0.2 ppm
  inhibition of growth at 0.2 ppm: 28%
[10]; 1.0 ppm
  inhibition of growth at 1 ppm: 96%
[11]; 0.04 ppm, alone
  inhibition of growth at 0.04 ppm: 26%
[12]; 0.2 ppm
  inhibition of growth at 0.2 ppm: 0%
[12]; 1.0 ppm
  inhibition of growth at 1 ppm: 14%
[13]; 0.008 ppm
  inhibition of growth at 0.008 ppm: 2%
[13]; 0.04 ppm
  inhibition of growth at 0.04 ppm: 40%
[13]; 0.2 ppm
  inhibition of growth at 0.2 ppm: 100%
[14]; single compound, 0.04 ppm
  inhibition of growth at 0.04 ppm: 21%
[14]; single compound, 0.2 ppm
  inhibition of growth at 0.2 ppm: 53%
[14]; single compound, 1 ppm
  inhibition of growth at 1 ppm: 94%
[15]; 0.008 ppm
  inhibition of growth at 0.008 ppm: 32%
[15]; 0.04 ppm
  inhibition of growth at 0.04 ppm: 100%
[15]; 0.2 ppm
  inhibition of growth at 0.2 ppm: 100%
[16]; 0.2 ppm
  inhibition of growth at 0.2 ppm: 0.31%
[16]; single active compound at 1 ppm
  inhibition of growth at 1 ppm: 24%
[17]; alone, 0.008 ppm, read-out: Efficacy %
  inhibition of growth at 0.008 ppm: 8%
[17]; alone, 0.04 ppm, read-out: Efficacy %
  inhibition of growth at 0.04 ppm: 0%
[17]; alone, 0.2 ppm, read-out: Efficacy %
  inhibition of growth at 0.2 ppm: 0%
[17]; alone, 1.0 ppm, read-out: Efficacy %
  inhibition of growth at 1 ppm: 0%
